From patent publication US12240844B2 (Voronoi, Inc., priority 2019, dated 2025)

Tests used:
[1] = biological target: T1, human GST-CLK1 (129-end) (Homo sapiens, UniProt P49759); assay: GST-CLK1 enzyme inhibition, ADP-Glo kinase assay; format: biochemical; settings: ATP 10 uM
T1 construct: purified human GST-CLK1 (129-end, Signalchem) enzyme; GST; purchased Signalchem
In short: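 ADP formation was read by ADP-Glo luminescence after 1 h at 25° C with 3 ng human GST-CLK1 (129-end), substrate and 10 uM ATP in Tris pH 7.4 buffer containing MgCl2, BSA and DTT. Inhibition relative to untreated solvent control gave IC50 (nM), run in triplicate.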

[2] = test system: human DYRK1A and Tau; assay: Tau phosphorylation inhibition, ClariCELL Kinase Cell-Based Assay (Carnabio)
In short: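 HEK293 cells transiently expressing human DYRK1A and Tau were exposed to compound, then lysed. Released Tau was captured on plate and its phosphorylation quantified by ELISA with a phospho-Tau-specific antibody.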

T1 sequence (P49759 129-484 limits assumed): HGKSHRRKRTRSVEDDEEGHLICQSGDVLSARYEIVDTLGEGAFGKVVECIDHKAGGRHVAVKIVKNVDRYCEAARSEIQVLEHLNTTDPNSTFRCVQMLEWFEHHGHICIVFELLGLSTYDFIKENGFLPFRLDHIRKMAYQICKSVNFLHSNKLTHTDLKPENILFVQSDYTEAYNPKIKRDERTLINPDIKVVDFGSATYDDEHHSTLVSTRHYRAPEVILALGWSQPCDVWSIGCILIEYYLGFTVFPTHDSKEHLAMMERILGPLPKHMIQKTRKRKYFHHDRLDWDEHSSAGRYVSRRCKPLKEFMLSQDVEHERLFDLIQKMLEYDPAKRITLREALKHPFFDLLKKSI

Row | Compound | IC50 [1] [nM] | inhibition at 0.25 µM [2] [%] | inhibition at 0.5 µM [2] [%] | inhibition at 1 µM [2] [%]
1 | CCNc1cc(Nc2ccc(P3(=O)CCN(C4CC4)CC3)cc2OC)nc2[nH]cc(C(F)(F)F)c12 [Example 206, 1-cyclopropyl-4-(4-((4-(ethylamino)-3-(trifluoromethyl)-1H-pyrrolo[2,3-b]pyridin-6-yl)amino)-3-methoxyphenyl)-1,4-azaphosphinane 4-oxide] | 301 to 1000 |  |  | 
2 | CCNc1cc(Nc2ccc(C(=O)N3CCC(N4CCOCC4)CC3)c3c2OCO3)nc2[nH]cc(C(F)(F)F)c12 [Example 37, (7-((4-(ethylamino)-3-(trifluoromethyl)-1H-pyrrolo[2,3-b]pyridin-6-yl)amino)benzo[d][1,3]dioxol-4-yl)(4-morpholinopiperidin-1-yl)methanone] | < 100 |  |  | 
3 | CCNc1cc(Nc2ccc(S(=O)(=O)N3CCC(N4CCOCC4)CC3)c3c2OCCO3)nc2[nH]cc(C(F)(F)F)c12 [Example 96, N^4-ethyl-N^6-(8-((4-morpholonopiperidin-1-yl)sulfonyl)-2,3-dihydrobenzo [b] [1,4]dioxin-5-yl)-3-(trifluoromethyl)-1H-pyrrolo[2,3-b]pyridine-4,6-diamine] | 101 to 300 | 11 | 19.6 | 52.8
4 | CNc1cc(Nc2ccc(C(=O)N3CCC(N4CCOCC4)CC3)c3c2OCCO3)nc2[nH]cc(C(F)(F)F)c12 [Example 160, (8-((4-(methylamino)-3-(trifluoromethyl)-1H-pyrrolo[2,3-b]pyridin-6-yl)amino)-2,3-dihydrobenzo [b] [1,4]dioxin-5-yl)(4-morpholinopiperidin-1-yl)methanone] | < 100 |  |  | 
5 | CCNc1cc(Nc2ccc(P3(=O)CCN(C4CCOCC4)CC3)cc2OC)nc2[nH]cc(C(F)(F)F)c12 [Example 94, 4-(4-((4-(ethylamino)-3-(trifluoromethyl)-1H-pyrrolo[2,3-b]pyridin-6-yl)amino)-3-methoxyphenyl)-1-(tetrahydro-2H-pyran-4-yl)-1,4-azaphosphinane 4-oxide] | 101 to 300 | 22.2 | 30.5 | 53.2
6 | COc1cc(S(=O)(=O)N2CCC(N3CCOCC3)CC2)ccc1Nc1cc(NCCS(C)(=O)=O)c2c(C(F)(F)F)c[nH]c2n1 [Example 194, N^6-(2-methoxy-4-((4-morpholinopiperidin-1-yl)sulfonyl)phenyl)-N^4-(2-(methylsulfonyl)ethyl)-3-(trifluoromethyl)-1H-pyrrolo[2,3-b]pyridine-4,6-diamine] | < 100 |  |  | 
7 | CCCNc1cc(Nc2ccc(C(=O)N3CCC(N4CCOCC4)CC3)c3c2OCCO3)nc2[nH]cc(C(F)(F)F)c12 [Example 162, (4-morpholinopiperidin-1-yl)(8-((4-(propylamino)-3-(trifluoromethyl)-1H-pyrrolo[2,3-b]pyridin-6-yl)amino)-2,3-dihydrobenzo[b] [1,4]dioxin-5-yl)methanone] | < 100 |  |  | 
8 | CNc1cc(Nc2ccc(S(=O)(=O)N3CCC(N4C[C@H]5C[C@@H]4CO5)CC3)cc2OC)nc2[nH]cc(C(F)(F)F)c12 [Example 243, N^6-(4-((4-((1R,4R)-2-oxa-5-azabicyclo[2.2.1]heptan-5-yl)piperidin-1-yl)sulfonyl)-2-methoxyphenyl)-N^4-methyl-3-(trifluoromethyl)-1H-pyrrolo[2,3-b]pyridine-4,6-diamine] | < 100 | 64.4 | 85 | 104
